Data: patent US20040033982A1, “Viral inhibition by n-docosanol” (priority 2001, published 2004)
Entries after “also recorded” stand apart in the source; their conditions may differ. Where two headings read alike, the source gives them in different places.

Tests used:
HSV-2 = assay: Fusion of octadecyl rhodamine B chloride-labeled HSV-2 with NC-37 human B cells; assay type: cell-based
Procedure: NC-37 human B cells were inoculated in the presence of 15 mM n-docosanol, the corresponding concentration of Tetronic 908 (0.1 mM) or without addition. Cells were harvested and R-18-labeled HSV-2 was added to aliquots in the presence of compounds at their original concentration. Following incubation at 37° C. for the times indicated, cells were fixed and fluorescence intensity determined by FACScan.
The HSV envelope was labeled with octadecyl rhodamine B chloride (R-18). NC-37 human B cells were inoculated at 2.5×10^5 cells/ml, 25 ml per flask. Cells were incubated overnight at 37° C. with no addition or in the presence of 15 mM n-docosanol or the corresponding concentration of Tetronic 908. […] Fluorescence intensity was measured by using a fluorescence-activated cell sorter (FACScan; Becton-Dickinson).
Because of the selectivity of the inhibitory effects of n-docosanol for lipid-enveloped fusion-dependent viruses and the absence of viricidal effects, we considered the possibility that n-docosanol may inhibit viral entry by altering target cell membranes to prevent effective fusion of viral particles with target cells. To investigate the effects of n-docosanol on HSV fusion with cellular membranes we conducted fluorescence dequenching assays. […] This relieves fluorescence self-quenching and causes an increase in signal intensity.

HSV = assay: Direct viricidal activity (virus mixed with suspension, infectivity recovered)
Procedure: Extensive studies designed to delineate the mechanism by which n-docosanol exerts its antiviral activity were conducted. The collective implications of the results of the studies are that the compound appears to interfere with one or more of the common pathways of viral entry into the cell and migration to the nucleus of infected target cells.
Instead, the drug apparently modifies the target cell in a manner that inhibits viral replication.

Friend virus = Friend virus induced leukemia and viremia in mice; assay type: in vivo, BALB/c mice; conditions: intravenous, day of virus and once daily for the next 3 days
Procedure: FIG. 12 depicts data showing that n-docosanol inhibits in vivo Friend virus induced leukemia and viremia. Adult BALB/c mice were injected intravenously with 75 spleen focus-forming units of FV. Treated groups were injected intravenously with the indicated doses of n-docosanol or Pluronic vehicle alone on the same day as virus inoculation and once daily for the next 3 days. After 10 days, half of the animals in each group were sacrificed and examined for leukemic foci in their spleens (panel A). The remaining mice were retained 10 more days and bled for viremia determinations (panel B). Viremia was measured using the X-C plaque assay. Briefly, primary fibroblast cultures were derived by digestion of 14-day BALB/c embryos with trypsin and culturing in DMEM plus 10% fetal calf serum. After 72 hours, the cells were transferred into 16-mm dishes (10^5/well), pretreated with 5 μg/ml polybrene and then infected with 75 X-C plaque-forming units of Friend virus stock or dilution of test plasma. After incubation for 7 days, the cultures were irradiated and overlaid with X-C cells (3×10^5/well). Three days later, the cultures were washed, stained, and scored for plaques of multinucleated giant cells. The data presented are geometric means and standard errors of splenic foci or X-C plaque-forming units derived from three animals per group. […]

HIV-1 = HIV-1 replication in PHA/IL-2-stimulated peripheral blood mononuclear cells (p24 ELISA); assay type: cell-based, human; conditions: 4 days after inoculation
Procedure: FIG. 13 depicts data showing that n-docosanol inhibits in vitro replication of HIV-1 in cultures of PHA/IL-2-stimulated human peripheral blood mononuclear cells. Human peripheral blood mononuclear cells were cultured in medium containing 1 μg/ml PHA plus 5 units/ml IL-2 alone or also containing 100 μg/ml PFA, the indicated dosage of n-docosanol/Pluronic F68, or the amount of Pluronic F-68 control vehicle contained in the high dose of n-docosanol/Pluronic F-68. After overnight incubation, the cultures were inoculated with HIV-1 at a multiplicity of infection of 1 virion/cell. After 24 hours incubation at 37° C., the cultures were washed and inoculated with fresh medium containing PHA and IL-2, but lacking inhibitor. Replication of HIV-1 was determined 4 days later by quantitation of viral antigens by a p24-specific ELISA for HIV-1.
The initial studies on HIV were conducted in collaboration with a U.S. National Institutes of Health Laboratory and one of several experiments of this type is summarized in FIG. 13. Normal human peripheral blood mononuclear cells were activated with 1 μg/ml PHA plus 5 units/ml of IL-2 in medium alone or in the presence of n-docosanol, Pluronic […] control vehicle, or phosphonformic acid (PFA). The next day, the cultures were inoculated with HIV-1 and examined 4 days later for evidence of viral replication by detection of the p24 viral antigen.

[1] = tested on: acyclovir-resistant HSV-2; assay: Plaque formation by acyclovir-resistant HSV-2 in Vero cells; assay type: cell-based; conditions: FIG. 7, Panel B
Procedure: FIG. 7 depicts data showing that n-docosanol inhibits acyclovir-resistant HSV-2. Vero cells were cultured in 35-mm wells (6×10^5 cells per well) in medium alone (=none) or in the presence of the indicated concentration of acyclovir, n-docosanol-Pluronic F-68 suspension or control suspension (Pluronic F-68 only). The cultures were inoculated 24 hours later with 150 PFU of either wild-type HSV-2 or an acyclovir-resistant laboratory isolate from the wild-type HSV-2 that was plaque purified and passaged in 20 μg/ml acyclovir 44 hours later, the plates were incubated, fixed, stained, and scored for numbers of plaques. The data presented are means of plaques scored from duplicate cultures. The percent inhibition observed in cultures treated with acyclovir or n-docosanol relative to untreated control cultures is denoted in parentheses.

CCCCCCCCCCCCCCCCCCCCCCO [n-docosanol]
inhibition at 15000 µM (HSV-2; Human alphaherpesvirus 2, NC-37, read-out: inhibition of fluorescent response compared to Tetronic control): ≤ 76% | inhibition at 15000 µM (HSV-2; Human alphaherpesvirus 2, NC-37, read-out: inhibition of relative increase in fluorescence intensity compared to cells receiving no treatment): ~50% | direct viricidal activity (HSV): no direct viricidal activity; also recorded: does not directly inactivate virus | development of leukemic foci in spleens (Friend virus; day 10): very clear dose-related inhibitory affect | development of viremia (Friend virus; day 20): very clear dose-related inhibitory affect | inhibitory activity against HIV-1 (p24 viral antigen) (HIV-1): dose-related inhibitory activity; also recorded: comparable to that observed with the very potent antiviral compound, phosphonoformic acid (PFA) | inhibition of plaque formation [1]: inhibited
